Results taken from patent US6878736B1, “Histamine H3 receptor ligands” (James Black Foundation Limited, priority 1998, dated 2005).
Counter-ions that a name gives are not always drawn.

Legend:
Histamine H3 receptor [1] = target: T1, Histamine H3 receptor (Cavia porcellus, UniProt Q9JI35); assay: Histamine H3 functional assay, guinea pig ileum (ileal longitudinal muscle, myenteric plexus); set-up: species or system tissue; details: antagonist affinity from rightward shift of R-(α)-methylhistamine E/[A] curves (Schild), typical variance ±0.15 log units; for Kb: read-out: pKb (Guinea pig ileum) (converted)
Experimental: • 1. J. Med. Chem 1994, 314. • 2. WO 97/29092 Histamine H3 Functional Assay—Guinea Pig Ileum
The biological activity of the compounds of the examples was measured using the ileal longitudinal muscle, myenteric plexus assay described by Paton and Aboo Zar (J. Physiol. 1968, 194, 13-33). Male Dunkin-Hartley guinea pigs (250-300 g) were employed. Briefly, a 50 cm portion of ileum proximal to the caecum was removed, after discarding the terminal 20 cm. Ileal segments (3 cm) were cleaned by passing Krebs-Henseleit buffer containing 3 μM mepyramine gently through the ileum using a Pasteur pipette (size: 13.8 cm length, 0.65 cm diameter). To avoid unnecessary damage to the tissue, Krebs-Henseleit buffer was passed through the ileal segment, while it was lying horizontally on a petri dish. Therefore, the ileum was not over-distended and the buffer flowed through with ease. Each segment was then passed over a Pasteur pipette and the longitudinal muscle layer and adhering myenteric plexus was teased away using moist cotton wool, by stroking tangentially away from the mesenteric attachment. The tissues were suspended in 20 ml organ baths containing Krebs-Henseleit buffer at 37±1° C. and gassed with […]. The tissues were ligated to two parallel stainless steel wires, situated between two platinum electrodes (0.76 cm length, 0.06 cm diameter). All measurements were recorded isometrically (Grass FTO3 transducer). Following an initial loading tension of 1 g, the tissues were stimulated with electrical pulses at a frequency of 0.1 Hz and a pulse duration of 0.5 msec, as described by Kosterlitz & Watt (Br. J. Pharmacol. 1968, 266276). Initially, the tissues were stimulated at supramaximal (1.3 fold times maximal) voltage for a period of 30 min and then the tissues were washed and re-stimulated. A “sighter dose” of the selective histamine H3-receptor agonist, R-(α)-methylhistamine (0.3 μM) (Arrang et al. Nature, 1987, 117-123), was administered. Upon generation of response, the “sighter dose” was removed from the tissues by “washout” (6 washes over 60 min) and during this period the electrical stimulation was switched off. The tissues were then re-stimulated and allowed to stabilise prior to the addition of drug treatments, which were allocated on a randomised block basis to the organ baths. Following the incubation period, a single cumulative E/[A] curve was obtained. The experimental E/[A] curve data was expressed as the percentage inhibition of the peak height of electrically-stimulated contraction. Antagonist affinity values were calculated from the degree of rightward shift of the R-(α)-methylhistamine E/[A] curves using Schild's methods (Arunlakshana & Schild Br. J. Pharmacol. 1959, 48-58). Typical variance in this assay is ±0.15 log units.

Histamine H3 receptor [2] = target: T1, Histamine H3 receptor; assay: Histamine H3 radioligand binding assay, guinea pig cortex ([3H]-R-α-methylhistamine); details: guinea pig cortex membranes, competition with 1 nM [3H]-R-α-methylhistamine; for Ki: read-out: pKi (Guinea pig cortex) (converted)
Experimental: The compounds of the invention were also tested in a guinea pig cortex binding assay, as follows:
Histamine H3 Radioligand Binding Assay—Guinea Pig Cortex
Male Dunkin Hartley guinea pigs (200-300 g) were used. The whole brain was removed and immediately placed in ice-cold 20 mM Hepes-NaOH buffer (pH7.4 at 21±3° C.). The cortex was dissected, weighed and homogenised in ice-cold 20 mM Hepes-NaOH buffer (pH7.4 at 21±3° C.) (50 ml/guinea-pig cortex) using a polytron (Kinematica AG; PT-DA 3020/2TS, 3×3 s). The homogenate was centrifuged at 100×g for 5 min and the supernatants pooled and stored at 4° C. The pellets were rehomogenised in fresh ice-cold buffer (80 ml) and recentrifuged (100×g for 5 min). The supernatants were pooled and pellets rehomogenised and recentrifuged (100×g for 5 min). All supernatants were pooled and centrifuged at 39,800×g for 12 min at 4° C. The final pellet was resuspended in 20 mM Hepes-NaOH buffer (pH7.4 at 21±3° C.) to a tissue concentration of 7.5 mg.ml^−1, using a teflon-in-glass homogeniser.
Guinea pig cortex membranes (400 μl) were incubated for 165 min at 21±3° C. in a final volume of 500 μl with 20 mM Hepes-NaOH buffer containing [^3H]-R-α-methylhistamine (50 μl; 1 nM) and competing compound. Total and non-specific binding of [^3H]-R-α-methylhistamine were defined using 50 μl of buffer and 50 μl of 10 μM thioperamide, respectively. The assay was terminated by rapid filtration through Whatman GF/B filters, presoaked (2 hr) in 0.1% polyethyleneimine, using a Brandell Cell Harvester. The filters were washed (3×3 ml) with ice-cold 50 mM Tris-HCl (pH6.9 at 21±3° C.), transferred into scintillation vials, 5 ml liquid scintillation cocktail was added and after 4 hours the bound radioactivity was determined by counting (4 min) in a Beckman liquid scintillation counter.
Data are analysed using GraphPad prism and the general equation for a competition curve with variable Hill slope (nH). [formula] where • X is the log concentration of competing compound, • Y is the binding obtained at each concentration of X, • pIC50 is the concentration of the competitor required to compete for half of the specific binding.
The IC50 is converted to the K1 using the Cheng Prusoff equation, K1=IC50/(1+(L/KD)) where • IC50 is the concentration of competitor required to compete for half the specific binding, • L is the radioligand concentration used, • KD is the equilibrium dissociation constant for the radioligand determined by saturation experiments.

T1 sequence (Q9JI35 whole entry): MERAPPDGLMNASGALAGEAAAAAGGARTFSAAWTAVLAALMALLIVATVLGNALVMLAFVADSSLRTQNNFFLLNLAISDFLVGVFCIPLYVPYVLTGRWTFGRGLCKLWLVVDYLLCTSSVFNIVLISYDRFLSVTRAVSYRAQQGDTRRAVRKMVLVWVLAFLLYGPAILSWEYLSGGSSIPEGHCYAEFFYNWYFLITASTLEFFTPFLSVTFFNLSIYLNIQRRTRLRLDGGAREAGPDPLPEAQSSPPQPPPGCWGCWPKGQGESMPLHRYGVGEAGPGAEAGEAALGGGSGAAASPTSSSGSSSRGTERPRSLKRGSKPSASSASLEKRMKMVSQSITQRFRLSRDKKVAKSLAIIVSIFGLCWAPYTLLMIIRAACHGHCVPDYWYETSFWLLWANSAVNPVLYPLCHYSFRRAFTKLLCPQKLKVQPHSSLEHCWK

Row | Compound | Kb (Histamine H3 receptor [1]) [nM] | Ki (Histamine H3 receptor [2]) [nM] | pKb (Guinea pig ileum) (Histamine H3 receptor [1]) | pKi (Guinea pig cortex) (Histamine H3 receptor [2])
1 | N=C(NCCCCCN1CCCC1)NCc1ccc(Cl)cc1 [Example 18, N-(4-Chlorobenzyl)-N′-(5-pyrrolidin-1-yl-pentyl)-guanidine bis-hydrochloride] | 50.1 | 5.01 |  | 
2 | N=C(NCCCCCN1CCCC1)NCC1CCCCO1 (stereo not shown) [Example 58, N-(5-Pyrrolidin-1-yl-pentyl)-N′-(tetrahydro-pyran-2-yl-methyl)-guanidine bis-hydrochloride] | 200 | 3.16 |  | 
3 | CCC(C)CNC(=N)NCCCCCN1CCCC1 (stereo not shown) [Example 67, N-(2-Methyl-butyl)-N′-(5-pyrrolidin-1-yl-pentyl)-guanidine bis-hydrochloride] | 50.1 | 2.51 |  | 
4 | N-Adamantan-1-yl-methyl-N′-(4-pyrrolidin-1-yl-butyl)-guanidine bis-hydrochloride [Example 29] |  |  | 7.7 | 8.4
5 | Cl.Cl.N=C(NCCCCN1CCCC1)NCC1CCCCC1 [Example 40, N-Cyclohexyl-methyl-N′-(4-pyrrolidin-1-yl-butyl)-guanidine bis-hydrochloride] |  |  | 7.4 | 8.4
6 | CN1CCC[C@H]1CCCNS(=O)(=O)c1ccc(Cl)cc1 [Example 98, N-(3-(1-Methyl-pyrrolidin-2S-yl)-propyl)-(4-chlorophenyl)-sulfonamide] | 794 | 794 |  | 
7 | N=C(NCc1ccc(Cl)cc1)N(CCCCN1CCCC1)Cc1ccc(Cl)cc1 [Example 52, N,N′-Bis-(4-Chlorobenzyl)-N-(4-pyrrolidin-1-yl-butyl)-guanidine bis-hydrochloride] | 316 | 316 |  | 
8 | CN1CCC[C@H]1CCCN(CCCc1ccc(Cl)cc1)S(=O)(=O)NCc1ccc(Cl)cc1 [Example 131, N-(4-Chlorobenzyl)-N′-(3-(4-chlorophenyl)propyl)-N′-(3-(1-methyl-pyrrolidin-2S-yl)propyl)-sulfamide] | > 3160 | 1000 |  | 
9 | N=C(N)N(CCCCCCN1CCCC1)CCC12CC3CC(CC(C3)C1)C2 [Example 78, N-(2-Adamantan-1-yl-ethyl)-N-(6-pyrrolidin-1-yl-hexyl)-guanidine bis-hydrochloride] | 31.6 | 79.4 |  | 
10 | N-Biphenyl-4-yl-methyl-N′-(5-pyrrolidin-1-yl-pentyl)-guanidine bis-hydrochloride [Example 55] |  |  | 6.6 | 7.5
11 | N-Adamantan-1-yl-methyl-N′-(3-pyrrolidin-1-yl-propyl)-guanidine bis-hydrochloride [Example 28] |  |  | 6.7 | 7.5
12 | CN(Cc1ccccc1)C(=N)NCCCCCN1CCCC1 [Example 50, N-Benzyl-N-methyl-N′-(5-pyrrolidin-1-yl-pentyl)-guanidine bis-hydrochloride] | 316 | 15.8 |  | 
13 | Cl.Cl.N=C(NCCCN1CCCC1)NCc1ccc(-c2ccccc2)cc1 [Example 12, N-Biphenyl-4-yl-methyl-N′-(3-pyrrolidin-1-yl-propyl)-guanidine bis-hydrochloride] |  |  | 6.3 | 6.2
14 | N=C(NCCCN1CCCC1)NCCC12CC3CC(CC(C3)C1)C2 [Example 33, N-(2-Adamantan-1-yl-ethyl)-N′-(3-pyrrolidin-1-yl-propyl)-guanidine bis-hydrochloride] | 200 | 79.4 |  | 
15 | N=C(N)N(CCCCCCCCN1CCCC1)Cc1ccc(Cl)cc1 [Example 79, N-(4-Chlorobenzyl)-N-(8-pyrrolidin-1-yl-octyl)-guanidine bis-hydrochloride] | 7.94 |  |  | 
16 | N=C(N)N(CCCCN1CCCC1)Cc1ccc(Cl)cc1 [Example 68, N-(4-Chlorobenzyl)-N-(4-pyrrolidin-1-yl-butyl)-guanidine bis-hydrochloride] | 50.1 |  |  | 
17 | N=C(NCCCN1CCCC1)NCc1ccccc1 [Example 8, N-Benzyl-N′-(3-pyrrolidin-1-yl-propyl)-guanidine bis-hydrochloride] | 631 |  |  | 

Second part, led by results:

Row | Kb (Histamine H3 receptor [1]) [nM] | Ki (Histamine H3 receptor [2]) [nM] | Compound | pKb (Guinea pig ileum) (Histamine H3 receptor [1]) | pKi (Guinea pig cortex) (Histamine H3 receptor [2])
18 | > 3160 | 316 | CN1CCC[C@H]1CCCN(CCCN1C(=O)c2ccccc2C1=O)S(=O)(=O)NCc1ccc(Cl)cc1 [Example 125, N-(4-Chlorobenzyl)-N′-(3-phthalimido-propyl)-N′-(3-(1-methyl-pyrrolidin-2S-yl)propyl)-sulfamide] |  | 
19 | 3980 | 63.1 | N=C(N)NCCCN1CCCC1 [Example 1, N-(3-Pyrrolidin-1-yl-propyl)-guanidine bis-hydrochloride] |  | 
20 | 501 | 501 | CN1CCC[C@H]1CCCN(C)S(=O)(=O)N(C)Cc1ccc(Cl)cc1 [Example 120, N-(4-Chlorobenzyl)-N,N′-dimethyl-N′-(3-(1-methyl-pyrrolidin-2S-yl)-propyl)-sulfamide] |  | 
21 | 794 | 79.4 | COc1ccc(C/N=C(\N)NCCCN2CCCC2)cc1 [Example 3, N-(4-Methoxybenzyl)-N′-(3-pyrrolidin-1-yl-propyl)-guanidine bis-hydrochloride] |  | 
22 | 316 | 25.1 | N=C(NCCCN1CCCC1)NCc1cccc(Br)c1 [Example 10, N-(3-Bromobenzyl)-N′-(3-pyrrolidin-1-yl-propyl)-guanidine bis-hydrochloride] |  | 
23 | 63.1 | 50.1 | N=C(NCCCCN1CCCC1)NCCCC12CC3CC(CC(C3)C1)C2 [Example 36, N-(3-Adamantan-1-yl-propyl)-N′-(4-pyrrolidin-1-yl-butyl)-guanidine bis-hydrochloride] |  | 
24 | 15.8 | 1.58 | N=C(N)N(CCCCCCN1CCCC1)Cc1ccccc1 [Example 73, N-Benzyl-N-(6-pyrrolidin-1-yl-hexyl)-guanidine bis-hydrochloride] |  | 
25 | 63.1 | 31.6 | N=C(NCCCCCN1CCCC1)NCCCC12CC3CC(CC(C3)C1)C2 [Example 38, N-(3-Adamantan-1-yl-propyl)-N′-(5-pyrrolidin-1-yl-pentyl)-guanidine bis-hydrochloride] |  | 
26 | 794 |  | N=C(NCCCN1CCCC1)NCc1ccc(C(F)(F)F)cc1 [Example 5, N-(4-(Trifluoromethyl)benzyl)-N′-(3-pyrrolidin-1-yl-propyl)-guanidine bis-hydrochloride] |  | 
27 | 3.98 |  | N=C(N)N(CCCCCCCN1CCCC1)Cc1ccc(Cl)cc1 [Example 71, N-(4-Chlorobenzyl)-N-(7-pyrrolidin-1-yl-heptyl)-guanidine bis-hydrochloride] |  | 
